Data on 13 compounds can be found in patent US9533983B2, “Antiplatelet agent” (Mitsubishi Tanabe Pharma Corporation, priority 2009, dated 2017).

Assay [1] concerns Ristocetin-Induced Platelet Aggregation. Nature of the assay: Platelet aggregation inhibitory activity: ristocetin-induced platelet aggregation in platelet rich plasma. The assay is classed as cell-based. The conditions noted are these: Cavia porcellus, guinea pig PRP. On the procedure:
(§1) A blood of a guinea pig was sampled by using a 1/10 volume of a 3.8% sodium citrate as a platelet aggregation inhibitor, and a platelet rich plasma (PRP) was separated by centrifuging the blood sample at 1100 rpm for 10 min. After fractionating the PRP in the upper layer, the lower layer was centrifuged at 3000 rpm for 10 min to fractionate the platelet poor plasma (PPP). To 100 μL of PRP, a 1 μL solution of each compound was added, and after still standing at 37° C. for 1 min, the mixture was stirred at 37° C. for 1 min by a stirrer. Then, 11 μL of collagen, ristocetin, or ADP was added thereto to induce the platelet aggregation. The platelet aggregation ability was measured by using the mCM hematolaser 313M (L-M-S Inc.). Based on the assumption that a light transmittance of PPP corresponds to a 100% coagulation value, an aggregation rate at each concentration of the compound was determined, then, an IC50 value was calculated therefrom.
[Platelet Aggregation Inhibitory Activities: Ristocetin-Induced Platelet Aggregation]

The test system of assay [2] is Collagen-Induced Platelet Aggregation. Put plainly: Platelet aggregation inhibitory activity: collagen-induced platelet aggregation in platelet rich plasma. In kind it is cell-based. The conditions noted are these: Cavia porcellus, guinea pig PRP. On the procedure: as §1
[Platelet Aggregation Inhibitory Activities: Collagen-Induced Platelet Aggregation]

pIC50: −log10 of the molar value.

With `COc1ccc(-n2c(-c3ccc(F)cn3)nc3cc(C(F)(F)F)ccc32)cn1` [Example 21, 2-(5-fluoropyridin-2-yl)-1-(6-methoxypyridin-3-yl)-5-(trifluoromethyl)-1H-benzimidazole], the pIC50 in assay [1] was 6.41; in assay [2], 6.89.
On to `COc1ccc(-n2c(-c3ccccn3)nc3cc(C4CC4)ccc32)cn1` [Example 27, 5-cyclopropyl-1-(6-methoxypyridin-3-yl)-2-pyridin-2-yl-1H-benzimidazole], for which the pIC50 in assay [1] was 6.77; in assay [2], 6.72.
With `COc1ccc(-n2c(-c3ccccn3)nc3cc(OCC4CC4)ccc32)cn1` [Example 31, 5-(cyclopropylmethoxy)-1-(6-methoxypyridin-3-yl)-2-pyridin-2-yl-1H-benzimidazole], the negative-log IC50 (pIC50) in assay [1] is 6.06; in assay [2], 6.60.
For `COc1ccc(-n2c(-c3ccc([N+](=O)[O-])cn3)nc3cc(C(F)(F)F)ccc32)nn1` [Example 53, 1-(6-methoxypyridazin-3-yl)-2-(5-nitropyridin-2-yl)-5-(trifluoromethyl)-1H-benzimidazole] the same measures were 7.38 and 7.24.
The matching figures for `COc1ccc(-n2c(-c3nccs3)nc3cc(C(F)(F)F)ccc32)nn1` [Example 54, 1-(6-methoxypyridazin-3-yl)-2-(1,3-thiazol-2-yl)-5-(trifluoromethyl)-1H-benzimidazole]: 7.00 and 6.72.
Turning to `COc1ccc(-n2c(-c3ccccn3)nc3cc(C(F)(F)F)c(Cl)cc32)cn1` [Example 55, 6-chloro-1-(6-methoxypyridin-3-yl)-2-pyridin-2-yl-5-(trifluoromethyl)-1H-benzimidazole], the results for the pIC50 in assay [1] and in assay [2] were 7.22 and 7.08, respectively.
Regarding `CCc1ccc(-c2nc3cc(C(F)(F)F)ccc3n2-c2ccc(OC)nn2)nc1` [Example 56, 2-(5-ethylpyridin-2-yl)-1-(6-methoxypyridazin-3-yl)-5-(trifluoromethyl)-1H-benzimidazole], the pIC50 is 7.55 in assay [1] and 7.33 in assay [2].
With `COc1ccc(-n2c(-c3cc(C)ccn3)nc3cc(C(F)(F)F)ccc32)nn1` [Example 58, 1-(6-methoxypyridazin-3-yl)-2-(4-methylpyridin-2-yl)-5-(trifluoromethyl)-1H-benzimidazole], the pIC50 is 6.55 in assay [1] and 6.77 in assay [2].
For the compound `CSc1ccc(-n2c(-c3ccccn3)nc3cc(C(F)(F)F)ccc32)nn1` [Example 67, 1-[6-(methylthio)pyridazin-3-yl]-2-pyridin-2-yl-5-(trifluoromethyl)-1H-benzimidazole], the pIC50 in assay [1] was 6.64; in assay [2], 6.77.
Turning to `COc1ccc(-n2c(-c3cc(C)on3)nc3cc(C(F)(F)F)ccc32)nn1` [Example 72, 2-(5-methylisoxazol-3-yl)-1-(6-methoxypyridazin-3-yl)-5-(trifluoromethyl)-1H-benzimidazole], the results for the pIC50 in assay [1] and in assay [2] were 6.89 and 6.74, respectively.
Regarding `COc1ccc(-n2c(-c3ccn(C)n3)nc3cc(C(F)(F)F)cnc32)cn1` [Example 73, 3-(6-methoxypyridin-3-yl)-2-(1-methyl-1H-pyrazol-3-yl)-6-(trifluoromethyl)-3H-imidazo[4,5-b]pyridine], the values for the pIC50 in assay [1] and in assay [2] were 7.08 and 7.10, respectively.
For `COc1ccc(-n2c(-c3cc(Br)ccn3)nc3cc(C(F)(F)F)ccc32)nn1` [Example 75, 2-(4-bromopyridin-2-yl)-1-(6-methoxypyridazin-3-yl)-5-(trifluoromethyl)-1H-benzimidazole] the same measures were 6.42 and 6.70.
In the case of `COc1ccc(-n2c(-c3ncccc3C#N)nc3cc(C(F)(F)F)ccc32)nn1` [Example 81, 2-[1-(6-methoxypyridazin-3-yl)-5-(trifluoromethyl)-1H-benzimidazole-2-yl]nicotinonitrile], the pIC50 in assay [1] was 6.30; in assay [2] it was 6.66.
